The source of these data is ChEMBL document CHEMBL4011659, “Combining Elements from Two Antagonists of Formyl Peptide Receptor 2 Generates More Potent Peptidomimetic Antagonists” (J Med Chem, 2017).

The source made the active and inactive calls. No cut-off for these calls is given here.

Test [1] has as its target T1, N-formyl peptide receptor 2 (Homo sapiens) (UniProt P25090).
T1 sequence (whole entry): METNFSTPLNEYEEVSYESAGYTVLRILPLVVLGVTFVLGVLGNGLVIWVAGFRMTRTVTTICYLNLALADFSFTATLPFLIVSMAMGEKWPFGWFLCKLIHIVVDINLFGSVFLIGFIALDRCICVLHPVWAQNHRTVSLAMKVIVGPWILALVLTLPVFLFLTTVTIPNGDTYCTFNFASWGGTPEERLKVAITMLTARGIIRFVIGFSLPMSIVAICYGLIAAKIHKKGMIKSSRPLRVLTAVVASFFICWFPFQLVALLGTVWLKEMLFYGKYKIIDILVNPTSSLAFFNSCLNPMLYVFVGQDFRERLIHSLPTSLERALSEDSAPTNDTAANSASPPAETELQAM
As to the kind of experiment: (§1) Antagonist activity at FPR2 in human peripheral blood polymorphonuclear neutrophils assessed as inhibition of WKYMVM-peptide induced ROS production preincubated for 5 mins followed WKYMVM-peptide stimulation by isoluminol/HRP-based chemiluminescence assay.

Test [2] addresses T2, N-formyl peptide receptor 2 (Homo sapiens, UniProt P25090).
T2 sequence (P25090 whole entry): T1 sequence (whole entry)
As to the kind of experiment: Antagonist activity at FPR2 in human peripheral blood polymorphonuclear neutrophils assessed as inhibition of WKYMVM-peptide induced ROS production preincubated for 5 mins followed WKYMVM-peptide stimulation measured up to 20 mins by isoluminol-based chemiluminescence assay.

Test [3] concerns the target T3, fMet-Leu-Phe receptor (Homo sapiens) (UniProt P21462).
T3 sequence (whole entry): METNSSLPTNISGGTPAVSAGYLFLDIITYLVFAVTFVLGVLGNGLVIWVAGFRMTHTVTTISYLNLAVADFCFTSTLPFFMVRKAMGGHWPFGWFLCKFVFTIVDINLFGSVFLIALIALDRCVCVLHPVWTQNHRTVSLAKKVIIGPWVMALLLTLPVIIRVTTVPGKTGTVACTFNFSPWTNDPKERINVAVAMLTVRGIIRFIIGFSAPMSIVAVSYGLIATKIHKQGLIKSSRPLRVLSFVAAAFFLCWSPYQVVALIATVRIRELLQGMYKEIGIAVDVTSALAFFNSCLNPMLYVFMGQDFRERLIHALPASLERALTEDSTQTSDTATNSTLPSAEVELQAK
As to the kind of experiment: Antagonist activity at FPR1 in human peripheral blood polymorphonuclear neutrophils assessed as inhibition of fMLF-induced ROS production at <500 nM preincubated for 5 mins followed fMLF stimulation by isoluminol/HRP-based chemiluminescence assay.

For test [4], the target named is T1, N-formyl peptide receptor 2 (Homo sapiens). As to conditions: 100 nM.
Description: Antagonist activity at FPR2 in human peripheral blood polymorphonuclear neutrophils assessed as inhibition of Lau-Aoc-(Lys-betaNphe)6-NH2-induced ROS production at 100 nM preincubated for 5 mins followed Lau-Aoc-(Lys-betaNphe)6-NH2 stimulation by isoluminol/HRP-based chemiluminescence assay
The target of test [5] is T3, fMet-Leu-Phe receptor (Homo sapiens). As to the kind of experiment: Antagonist activity at FPR1 in human peripheral blood polymorphonuclear neutrophils assessed as inhibition of fMIFL-induced ROS production at 500 nM preincubated for 5 mins followed fMIFL stimulation by isoluminol/HRP-based chemiluminescence assay.
For test [6] the target is unchanged. As to the kind of experiment: Antagonist activity at FPR1 in human peripheral blood polymorphonuclear neutrophils assessed as inhibition of fMLF-induced ROS production at 500 nM preincubated for 5 mins followed fMIFL stimulation by isoluminol/HRP-based chemiluminescence assay.
Test [7] has the same target. As to the kind of experiment: Antagonist activity at FPR1 in human peripheral blood polymorphonuclear neutrophils assessed as inhibition of N-(4-chlorophenyl)-N'-(5-isopropyl-1-methyl-3-oxo-2-phenyl-2,3-dihydro-1H-pyrazol-4-yl)urea-induced ROS production at 500 nM preincubated for 5 mins followed N-(4-chlorophenyl)-N'-(5-isopropyl-1-methyl-3-oxo-2-phenyl-2,3-dihydro-1H-pyrazol-4-yl)urea stimulation by isoluminol/HRP-based chemiluminescence assay.

Test [8] addresses T1, N-formyl peptide receptor 2 (Homo sapiens). As to conditions: 100 nM. The source holds these as a separate data set.
Description: Antagonist activity at FPR2 in human peripheral blood polymorphonuclear neutrophils assessed as inhibition of WKYMVM-induced ROS production at 100 nM preincubated for 5 mins followed Lau-Aoc-(Lys-betaNphe)6-NH2 stimulation by isoluminol/HRP-based chemiluminescence assay
The target is the same in test [9]. As to conditions: 100 nM. This is another data set of the same source.
Description: Antagonist activity at FPR2 in human peripheral blood polymorphonuclear neutrophils assessed as inhibition of F2Pal10-induced ROS production at 100 nM preincubated for 5 mins followed F2Pal10 stimulation by isoluminol/HRP-based chemiluminescence assay
For test [10] the target is unchanged. As to conditions: 100 nM. The source holds these as a separate data set.
Description: Displacement of Cy5-WKYMVM from FPR2 in human peripheral blood polymorphonuclear neutrophils at 100 nM preincubated for 10 mins followed by Cy5-WKYMVM addition measured after 60 mins by fluorescence based assay
For test [11], the target named is T2, N-formyl peptide receptor 2. Described as §1.
Test [12] addresses T1, N-formyl peptide receptor 2 (Homo sapiens). As to conditions: 100 nM. The source holds these as a separate data set.
Description: Antagonist activity at FPR2 in human peripheral blood polymorphonuclear neutrophils assessed as inhibition of PSMalpha2-peptide induced ROS production at 100 nM preincubated for 5 mins followed PSMalpha2-peptide stimulation by isoluminol/HRP-based chemiluminescence assay
Test [13] concerns the target T3, fMet-Leu-Phe receptor (Homo sapiens). As to the kind of experiment: Antagonist activity at FPR1 in human peripheral blood polymorphonuclear neutrophils assessed as inhibition of fMLF-induced ROS production at >= 500 nM preincubated for 5 mins followed fMLF stimulation by isoluminol/HRP-based chemiluminescence assay.
For test [14], the system named is Neutrophil. As to the kind of experiment: Inhibition of PMA-induced superoxide production in human peripheral blood polymorphonuclear neutrophils at 500 nM preincubated for 5 mins followed PMA stimulation by isoluminol/HRP-based chemiluminescence assay. The class given is functional, cell-based.

On to `CCN(CC)c1ccc2c(-c3ccccc3C(=O)N[C@@H](CCC(N)=O)C(=O)N[C@@H](CCCNC(=N)N)C(=O)N[C@@H](CC(C)C)C(=O)N[C@@H](Cc3ccccc3)C(=O)N[C@@H](CCC(N)=O)C(=O)N[C@@H](C(=O)N[C@@H](CCCCN)C(=O)NCC(=O)N[C@@H](CCCNC(=N)N)C(=O)N[C@@H](CCCNC(=N)N)C(N)=O)C(C)C)c3ccc(=[N+](CC)CC)cc-3oc2c1`, for which the inhibition entry in test [1] is “Active”.
For orientation: IC50 means the point on the concentration scale where inhibition reaches its midpoint. Regarding `CCN(CC)c1ccc2c(-c3ccccc3C(=O)N[C@@H](CCC(N)=O)C(=O)N[C@@H](CCCNC(=N)N)C(=O)N[C@@H](CC(C)C)C(=O)N[C@@H](Cc3ccccc3)C(=O)N[C@@H](CCC(N)=O)C(=O)NC(C(=O)N[C@@H](CCCCN)C(=O)NCC(=O)N[C@@H](CCCNC(=N)N)C(=O)N[C@@H](CCCNC(=N)N)C(=O)O)C(C)C)c3ccc(=[N+](CC)CC)cc-3oc2c1` (single isomer, unassigned), the IC50 in test [2] was determined as 60 nM. The inhibition entry in [3] was “inactive”.
Take `CCN(CC)c1ccc2c(-c3ccccc3C(=O)N[C@@H](CCCCN)C(=O)N(CCC(=O)N[C@@H](CCCCN)C(=O)N(CCC(=O)N[C@@H](CCCCN)C(=O)N(CCC(=O)N[C@@H](CCCCN)C(=O)N(CCC(=O)N[C@@H](CCCCN)C(=O)N(CCC(=O)N[C@@H](CCCCN)C(=O)N(CCC(N)=O)Cc3ccccc3)Cc3ccccc3)Cc3ccccc3)Cc3ccccc3)Cc3ccccc3)Cc3ccccc3)c3ccc(=[N+](CC)CC)cc-3oc2c1`: the inhibition result in [4], in [8], in test [9], in test [10] and in [12] was “Active” each time. Further, the inhibition result in [5], in [6], in test [7] and in test [3] was “inactive” in each case. Moreover, in test [11], the IC50 came out at 15 nM.
Consider `CCN(CC)c1ccc2c(-c3ccccc3C(=O)N[C@@H](CCCCN)C(=O)N(CCC(=O)N[C@@H](CCCCN)C(=O)N(CCC(=O)N[C@@H](CCCCN)C(=O)N(CCC(=O)N[C@@H](CCCCN)C(=O)N(CCC(=O)N[C@@H](CCCCN)C(=O)N(CCC(=O)N[C@@H](CCCCN)C(=O)N(CCC(N)=O)Cc3ccc(C(F)(F)F)cc3)Cc3ccc(C(F)(F)F)cc3)Cc3ccc(C(F)(F)F)cc3)Cc3ccc(C(F)(F)F)cc3)Cc3ccc(C(F)(F)F)cc3)Cc3ccc(C(F)(F)F)cc3)c3ccc(=[N+](CC)CC)cc-3oc2c1`, for which the inhibition entry in test [13] and in test [14] was “Active” throughout. Further, the IC50 in [11] was found to be 94 nM.
